The numbers were not newly measured in patent US4665052A, “Renin inhibitors containing homophe^8 and a C-terminal amide cycle” (Merck & Co., Inc., priority 1984, dated 1987), which cites them from elsewhere.

Data set [1] relates to aspartyl proteases such as pepsin, cathepsin D, and renin. Conditions: selectivity.
The test system of the next data set is hog renin. Conditions: after injection of hog renin into nephrectomized rats; Gross et al. 1971.

Take pepstatin: the “inhibition of other acid proteases in addition to renin” value in data set [1] was “inhibition of a variety of other acid proteases in addition to renin”. The “blood pressure in vivo” value in the data set on hog renin is “reduce blood pressure in vivo”.
